Laboratory results reported in patent US4636492A, “Inhibition of viral protease activity by peptide halomethyl ketones” (priority 1984, dated 1987).
Numbered stars: 1 amine (or outer) side, 2 acyl side, 3 side chain; on linkers, the order of the positions; unused ones are H or OH. Square brackets hold non-standard residues; d marks the D form. Peptide text beside a SMILES is read from it. * marks the point of attachment. ξ: configuration not given here. Dansyl = CN(C)c1cccc2c(S(=O)(=O)*)cccc12; Suc = O=C(CCC(=O)[*:2])[*:1]; MeOSuc = COC(=O)CCC(=O)*; Cbz = O=C(OCc1ccccc1)*; Boc = CC(C)(C)OC(=O)*; ξL = CC(C)CC(N)C(=O)O; ξV = CC(C)C(N)C(=O)O; CH2Cl = ClC*

Columns and labels:
[1] = system: human poliomyelitisvirus type 2; type: cell-based
subtilisin BPN' = target: T1, subtilisin BPN' (Bacillus amyloliquefaciens, UniProt P00782); details: among a series of peptide chloromethyl ketones; cited from earlier work
T1 sequence (P00782 108-382): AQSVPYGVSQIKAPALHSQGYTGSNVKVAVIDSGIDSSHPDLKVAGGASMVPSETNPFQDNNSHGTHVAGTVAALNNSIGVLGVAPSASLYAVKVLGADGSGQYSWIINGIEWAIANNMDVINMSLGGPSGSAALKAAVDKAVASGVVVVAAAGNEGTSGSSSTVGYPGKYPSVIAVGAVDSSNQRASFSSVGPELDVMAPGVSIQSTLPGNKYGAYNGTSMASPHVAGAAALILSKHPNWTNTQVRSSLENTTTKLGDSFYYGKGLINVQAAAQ

Human rhinovirus type 1A = test: Plaque inhibition assay; type: cell-based; details: HeLa cells, concentration giving 90% plaque reduction
chymotrypsin = chymotrypsin (Bos taurus, UniProt P00766); details: inhibitor concentration of 600 μg/mL; cited from earlier work

SMILES	Activity (protease-inhibiting activity) [1]	further results
CC(C)C(NC(=O)[C@H](C)NC(=O)CNC(=O)[C@H](Cc1ccccc1)NC(=O)OCc1ccccc1)C(=O)CCl (stereo partly drawn) [Example 11, Z--Phe--Gly--Ala--ValCH2 Cl] (Cbz-FGA[ξV]-CH2Cl)	++ (key: -: no activity; +/-: low activity; +: active at 100 μg/mL; ++: active at 50 μg/mL; +++: active at 10 μg/mL; ++++: active at <5 μg/mL)	
CC(=O)N[C@@H](Cc1ccccc1)C(=O)NCC(=O)N[C@@H](C)C(=O)NC(CC(C)C)C(=O)CCl (stereo partly drawn) [Example 2, acetyl-L-phenylalanyl-L-glycyl-L-alanyl-L-leucyl chloromethyl ketone] (Ac-FGA[ξL]-CH2Cl)	+++ (key: -: no activity; +/-: low activity; +: active at 100 μg/mL; ++: active at 50 μg/mL; +++: active at 10 μg/mL; ++++: active at <5 μg/mL)	Inhibition of subtilisin BPN' (relative rate) (subtilisin BPN'): fastest inhibitor
CC(C)CC(NC(=O)C(C)NC(=O)CNC(=O)C(Cc1ccccc1)NC(=O)OCc1ccccc1)C(=O)CBr (stereo not drawn) [Example 10, Z--Phe--Gly--Ala--LeuCH2 Br]	+++ (key: -: no activity; +/-: low activity; +: active at 100 μg/mL; ++: active at 50 μg/mL; +++: active at 10 μg/mL; ++++: active at <5 μg/mL)	
CC(C)C[C@H](NC(=O)[C@H](C)NC(=O)CNC(=O)[C@H](Cc1ccccc1)NS(=O)(=O)c1cccc2c(N(C)C)cccc12)C(=O)CCl [Example 5, DNS--Phe--Gly--Ala--LeuCH2 Cl] (Dansyl-FGAL-CH2Cl)	+++ (key: -: no activity; +/-: low activity; +: active at 100 μg/mL; ++: active at 50 μg/mL; +++: active at 10 μg/mL; ++++: active at <5 μg/mL)	
CC(C)C[C@H](NC(=O)CNC(=O)CNC(=O)[C@H](Cc1ccccc1)NC(=O)OCc1ccccc1)C(=O)CCl [Example 9, Z--Phe--Gly--Gly--LeuCH2 Cl] (Cbz-FGGL-CH2Cl)	+++ (key: -: no activity; +/-: low activity; +: active at 100 μg/mL; ++: active at 50 μg/mL; +++: active at 10 μg/mL; ++++: active at <5 μg/mL)	
CC(C)C[C@H](NC(=O)[C@H](CC(C)C)NC(=O)CNC(=O)[C@H](Cc1ccccc1)NC(=O)OCc1ccccc1)C(=O)CCl [Example 12, N-carbobenzoxy-L-phenylalanyl-L-glycyl-L-leucyl-L-leucine chloromethyl ketone] (Cbz-FGLL-CH2Cl)	++++ (key: -: no activity; +/-: low activity; +: active at 100 μg/mL; ++: active at 50 μg/mL; +++: active at 10 μg/mL; ++++: active at <5 μg/mL)	Antiviral activity, as scored by 90% plaque reduction (Human rhinovirus type 1A): 1 µg/mL; Cytotoxicity first detected at a concentration (human HeLa-O cells): about 15 μg/mL
C[C@H](NC(=O)CNC(=O)[C@H](Cc1ccccc1)NC(=O)OCc1ccccc1)C(=O)N[C@@H](Cc1ccc(O)cc1)C(=O)CCl [Example 20, Z--Phe--Gly--Ala--TyrCH2 Cl] (Cbz-FGAY-CH2Cl)	++ (key: -: no activity; +/-: low activity; +: active at 100 μg/mL; ++: active at 50 μg/mL; +++: active at 10 μg/mL; ++++: active at <5 μg/mL)	
CC[C@H](C)[C@H](NC(=O)[C@H](C)NC(=O)CCC(=O)OC)C(=O)N[C@@H](Cc1ccccc1)C(=O)N[C@@H](CC(C)C)C(=O)CCl [Example 17, MeOSuc--Ala--Ile--Phe--LeuCH2 Cl] (MeOSuc-AIFL-CH2Cl)	+++ (key: -: no activity; +/-: low activity; +: active at 100 μg/mL; ++: active at 50 μg/mL; +++: active at 10 μg/mL; ++++: active at <5 μg/mL)	
COC(=O)CCC(=O)N[C@@H](Cc1ccccc1)C(=O)NCC(=O)N[C@@H](CC(C)C)C(=O)N[C@@H](CCC(=O)OC)C(=O)CCl [Example 18, MeOSuc--Phe--Gly--Leu--Glu(OCH3)CH2 Cl] (MeOSuc-FGLE(OMe)-CH2Cl)	++++ (key: -: no activity; +/-: low activity; +: active at 100 μg/mL; ++: active at 50 μg/mL; +++: active at 10 μg/mL; ++++: active at <5 μg/mL)	
CC(C)C[C@H](NC(=O)[C@H](C)NC(=O)CNC(=O)OC(C)(C)C)C(=O)CCl [Example 7, Boc--Gly--Ala--LeuCH2 Cl] (Boc-Gly-Ala-Leu-CH2Cl)	++ (key: -: no activity; +/-: low activity; +: active at 100 μg/mL; ++: active at 50 μg/mL; +++: active at 10 μg/mL; ++++: active at <5 μg/mL)	
CCC(C)C(NC(=O)C(C)NC(=O)CCC(=O)OC)C(=O)NC(Cc1ccccc1)C(=O)NC(CCC(=O)OC)C(=O)CCl (stereo not drawn) [Example 19, MeOSuc--Ala--Ile--Phe--Glu(OCH3)CH2 Cl] (MeOSuc-AIFE(OMe)-CH2Cl; configuration not given here)	+++ (key: -: no activity; +/-: low activity; +: active at 100 μg/mL; ++: active at 50 μg/mL; +++: active at 10 μg/mL; ++++: active at <5 μg/mL)	
CC(=O)N[C@@H](CC(C)C)C(=O)N[C@@H](CC(C)C)C(=O)N[C@@H](Cc1ccccc1)C(C)=O [Ac-Leu-Leu-PheCH3]		Inhibition of chymotrypsin (chymotrypsin): no inhibition was observed
CC(C)C[C@H](NC(=O)[C@H](CO)NC(=O)CNC(=O)[C@H](Cc1ccccc1)NC(=O)OCc1ccccc1)C(=O)CCl [Example 15, Z--Phe--Gly--Ser--LeuCH2 Cl] (Cbz-FGSL-CH2Cl)	++ (key: -: no activity; +/-: low activity; +: active at 100 μg/mL; ++: active at 50 μg/mL; +++: active at 10 μg/mL; ++++: active at <5 μg/mL)	
CC(C)C[C@H](NC(=O)[C@H](Cc1ccccc1)NC(=O)CNC(=O)[C@H](Cc1ccccc1)NC(=O)OCc1ccccc1)C(=O)CCl [Example 14, Z--Phe--Gly--Phe--LeuCH2 Cl] (Cbz-FGFL-CH2Cl)	++ (key: -: no activity; +/-: low activity; +: active at 100 μg/mL; ++: active at 50 μg/mL; +++: active at 10 μg/mL; ++++: active at <5 μg/mL)	
CC(C)CC(NC(=O)[C@H](C)NC(=O)[C@H](CC(C)C)NC(=O)[C@H](Cc1ccccc1)NC(=O)OCc1ccccc1)C(=O)CCl (stereo partly drawn) [Example 13, Z--Phe--Leu--Ala--LeuCH2 Cl] (Cbz-FLA[ξL]-CH2Cl)	++ (key: -: no activity; +/-: low activity; +: active at 100 μg/mL; ++: active at 50 μg/mL; +++: active at 10 μg/mL; ++++: active at <5 μg/mL)	
CC(C)C[C@H](NC(=O)[C@H](C)NC(=O)CNC(=O)[C@H](Cc1ccccc1)NC(=O)OCc1ccccc1)C(=O)CCl [Example 1, Z--Phe--Gly--Ala--LeuCH2 Cl] (Cbz-FGAL-CH2Cl)	+++ (key: -: no activity; +/-: low activity; +: active at 100 μg/mL; ++: active at 50 μg/mL; +++: active at 10 μg/mL; ++++: active at <5 μg/mL)	
CC(C)CC(NC(=O)[C@H](C)NC(=O)CNC(=O)[C@H](Cc1ccccc1)NC(=O)CCC(=O)O)C(=O)CCl (stereo partly drawn) [Example 3, Suc--Phe--Gly--Ala--LeuCH2 Cl] (Suc-FGA[ξL]-CH2Cl)	+++ (key: -: no activity; +/-: low activity; +: active at 100 μg/mL; ++: active at 50 μg/mL; +++: active at 10 μg/mL; ++++: active at <5 μg/mL)	
CC(C)C[C@H](NC(=O)[C@H](C)NC(=O)CNC(=O)[C@H](Cc1ccccc1)Nc1ccc([N+](=O)[O-])cc1[N+](=O)[O-])C(=O)CCl [Example 6, DNP--Phe--Gly--Ala--LeuCH2 Cl]	+++ (key: -: no activity; +/-: low activity; +: active at 100 μg/mL; ++: active at 50 μg/mL; +++: active at 10 μg/mL; ++++: active at <5 μg/mL)	
CC(C)C[C@H](NC(=O)[C@@H]1CCCN1C(=O)CNC(=O)[C@H](Cc1ccccc1)NC(=O)OCc1ccccc1)C(=O)CCl [Example 16, Z--Phe--Gly--Pro--LeuCH2 Cl] (Cbz-FGPL-CH2Cl)	++ (key: -: no activity; +/-: low activity; +: active at 100 μg/mL; ++: active at 50 μg/mL; +++: active at 10 μg/mL; ++++: active at <5 μg/mL)	
COC(=O)CCC(=O)N[C@@H](Cc1ccccc1)C(=O)NCC(=O)N[C@@H](C)C(=O)N[C@@H](CC(C)C)C(=O)CCl [Example 4, methoxy-succinyl-L-phenylalanyl-L-glycyl-L-alanyl-L-leucyl chloromethyl ketone] (MeOSuc-FGAL-CH2Cl)	+++ (key: -: no activity; +/-: low activity; +: active at 100 μg/mL; ++: active at 50 μg/mL; +++: active at 10 μg/mL; ++++: active at <5 μg/mL)	
CC(C)C[C@H](NC(=O)[C@H](C)NC(=O)CNC(=O)[C@H](CC(C)C)NC(=O)OCc1ccccc1)C(=O)CCl [Example 8, Z--Leu--Gly--Ala--LeuCH2 Cl] (Cbz-LGAL-CH2Cl)	+++ (key: -: no activity; +/-: low activity; +: active at 100 μg/mL; ++: active at 50 μg/mL; +++: active at 10 μg/mL; ++++: active at <5 μg/mL)	
